In data set [1] the test system is rat liver microsomes (RLM). The experiment in a line: Screening of 10 drugs for inhibition of quetiapine metabolism (formation of N-desalkylquetiapine) in RLM. Format: in vitro ADME. Particulars: RLM 0.3 mg/mL, drug 100 μM, quetiapine at Km. As to the method:
(§1) 200 μL enzymatic kinetic incubation system was adjusted according to the measurement purpose with the corresponding incubation conditions. […] The mixture without NADPH was pre-incubated at 37 °C in a water bath for 5 min, then 10 μL NADPH (20 mM) was added to initiate the reaction. Following a further 30 min incubation, the reaction was terminated by freezing at −80 °C. Prior to sample thawing, 400 μL acetonitrile was added to precipitate proteins, and 20 μL lurasidone (200 ng/mL) was added as IS. After complete dissolution of the samples, they were vortexed for 2 min and centrifuged for 10 min (13,000 rpm), then the supernatants were taken for UPLC-MS/MS detection and analysis.

For data set [2] the following is noted: treatment of refractory depression; ref Reif et al., 2023; cited from earlier work.
Data set [3] in a line: Pharmacokinetics of quetiapine and N-desalkylquetiapine in rats with or without nicardipine. Format: in vivo, Sprague-Dawley rats. Particulars: rat; for CL/F: read-out: CLz/F (converted). As to the method:
Due to the similarity between their hepatic enzyme system and humans, Sprague-Dawley male rats are widely used in pharmacokinetics ([Martignoni et al., 2006]; [Riccardi et al., 2018]). This pharmacokinetic study was conducted on eight healthy male Sprague-Dawley rats provided by the Animal Experiment Center of the First Affiliated Hospital of Wenzhou Medical University (Zhejiang, China). Animals were housed in an environment with a temperature of 20 °C–26 °C, relative humidity of 55% ± 15%, and a light-dark cycle of 12 h/day, in strict following the guidelines for the care and use of laboratory animals by the National Research Council. The research protocol was adhered to the ARRIVE guidelines and was approved by the Experimental Animal Ethics Committee of the First Affiliated Hospital of Wenzhou Medical University (WYYY-IACUC-AEC-2023–064). Before the formal experiment, in order to mitigate the influence of food on drug absorption, Sprague-Dawley rats were fasted for 12 h and then randomly divided into two groups. Nicardipine and quetiapine are dissolved using corn oil. […] Following centrifugation at 8,000 rpm for 10 min, 100 μL of plasma supernatant was precisely taken into a new clean and dry 1.5 mL EP tube, where 300 μL acetonitrile and 10 μL IS working solution (200 ng/mL) were added, and after vortexing and centrifugation, the supernatants were taken for injection and analysis.

For data set [4], the system named is rat liver microsomes (RLM). Particulars: 1-200 μM quetiapine. As to the method: as §1
(§2) The Michaelis-Menten curves, IC50 curves, Lineweaver–Burk plots, and the mean plasma concentration–time curves were generated using GraphPad Prism software (version 9.5; GraphPad Software Inc., San Diego, CA). The pharmacokinetic parameters were derived using the non-compartmental model analysis with Drug and Statistics software (version 3.0 software, Mathematical Pharmacology Professional Committee of China, Shanghai, China).

Data set [5] has as its system human liver microsomes (HLM). Particulars: 1-200 μM quetiapine. As to the method:
as §1, §2

Details of data set [6]: method as in Chen et al., 2024. Particulars: in vivo; ref Chen et al., 2024; cited from earlier work.
The mark [7] stands for this setting: male, Sprague-Dawley, plasma, po, 15 mg/kg, quetiapine in plasma, quetiapine 15 mg/kg + nicardipine 4 mg/kg by gavage 30 min before.
The mark [8] stands for this setting: male, Sprague-Dawley, plasma, po, 15 mg/kg, quetiapine in plasma, quetiapine 15 mg/kg by gavage alone.
The mark [9] stands for this setting: metabolite N-desalkylquetiapine in plasma, quetiapine 15 mg/kg + nicardipine 4 mg/kg by gavage.
Where [10] appears, read: metabolite N-desalkylquetiapine in plasma, quetiapine 15 mg/kg by gavage alone.

Where two headings read alike, the source gives them in different places.

The values below come from article PMC12500448 (Frontiers in Pharmacology, 2025).

One may read the AUC(0-inf) as total exposure, with the tail of the curve extrapolated. Usually half-life stands for the time needed for the level to fall by half in the phase considered. As usually defined, the AUC(0-t) is exposure summed from dosing to a finite time, without extrapolation to infinity. In general, Cmax refers to the highest concentration seen after dosing. Usually Tmax stands for the time from dosing to the highest level. The Km is the concentration of substrate that gives half-maximal velocity.

With `O=c1c(O)c(-c2ccc(O)c(O)c2)oc2cc(O)cc(O)c12` [quercetin], the “inhibition rate against quetiapine metabolism” value in data set [1] is 61.47%.
In the case of `OCCOCCN1CCN(C2=Nc3ccccc3Sc3ccccc32)CC1` [quetiapine], the “incidence of adverse reactions” value in data set [2] is reported as 78.0%. The “incidence of serious adverse reactions” value in data set [2] is 5.7%. Moreover, the AUC(0-inf) in data set [3] (setting [7]) worked out at 108 ± 31.4 ng·h/mL; in data set [3] (setting [8]), 38.1 ± 6.91 ng·h/mL. Also, the half-life in data set [3] (setting [7]) is 5.16 ± 2.82 h; in data set [3] (setting [8]), 5.12 ± 3.56 h. For the same molecule, the area under the curve AUC(0-t) in data set [3] (male, Sprague-Dawley, plasma, po, 15 mg/kg, quetiapine in plasma, quetiapine 15 mg/kg + nicardipine 4 mg/kg by gavage 30 min before, read-out: AUC(0-t)) came to 106 ± 30.3 ng·h/mL; in data set [3] (male, Sprague-Dawley, plasma, po, 15 mg/kg, quetiapine in plasma, quetiapine 15 mg/kg by gavage alone, read-out: AUC(0-t)) it was 36 ± 5.48 ng·h/mL. In addition, the results for the CL/F in data set [3] (setting [7]) and in data set [3] (setting [8]) were 2460 mL/min/kg and 6730 mL/min/kg, respectively. Besides, the maximum concentration (Cmax) was determined as 28.8 ± 10.7 ng/mL in data set [3] (male, Sprague-Dawley, plasma, po, 15 mg/kg, quetiapine in plasma, quetiapine 15 mg/kg + nicardipine 4 mg/kg by gavage 30 min before, read-out: Cmax) and 12 ± 2.28 ng/mL in data set [3] (male, Sprague-Dawley, plasma, po, 15 mg/kg, quetiapine in plasma, quetiapine 15 mg/kg by gavage alone, read-out: Cmax). Further, the Tmax was 0.88 ± 0.52 h in data set [3] (male, Sprague-Dawley, plasma, po, 15 mg/kg, quetiapine in plasma, quetiapine 15 mg/kg + nicardipine 4 mg/kg by gavage 30 min before, read-out: Tmax) and 0.94 ± 0.52 h in data set [3] (male, Sprague-Dawley, plasma, po, 15 mg/kg, quetiapine in plasma, quetiapine 15 mg/kg by gavage alone, read-out: Tmax). The Michaelis constant (Km) was determined as 48.8 µM in data set [4] and 50.8 µM in data set [5].
On to `c1ccc2c(c1)N=C(N1CCNCC1)c1ccccc1S2` [N-desalkylquetiapine], for which, in data set [3] (setting [9]), the “AUC0−∞” value came to 80.29 ± 27.62 ng·h/mL, the exposure AUC(0-t) is 70.19 ± 22.75 ng·h/mL, the CLz/F was determined as 3499.8 ± 1541 mL/min/kg and the Cmax amounted to 14.98 ± 11.59 ng/mL. In data set [3] (setting [9]), the time of peak concentration (Tmax) was determined as 0.69 ± 0.55 h and the t1/2 worked out at 8.54 ± 5.49 h. Moreover, in data set [3] (setting [10]), the “AUC0−∞” value is 161.47 ± 62.64 ng·h/mL, the “AUC(0-t)” value was determined as 160.62 ± 63.16 ng·h/mL, the CLz/F came out at 1692 ± 501.3 mL/min/kg and the Cmax stood at 50.66 ± 32.77 ng/mL. Besides, in data set [3] (setting [10]), the Tmax is on record as 0.31 ± 0.13 h and the t1/2 came out at 3.19 ± 1.76 h.
In the case of `COC(=O)C1=C(C)NC(C)=C(C(=O)OCCN(C)Cc2ccccc2)C1c1cccc([N+](=O)[O-])c1` (stereo not shown) [nicardipine], in data set [6], the “increase of AUC0−∞ of almonertinib” value is recorded as 0.87 fold and the “increase of AUC(0-t) of almonertinib” value was 0.95 fold.
